From article PMC5656517 (European journal of pharmaceutical sciences : official …, 2017)

Key:
cytochrome P450 enzymes = test: Single concentration; conditions: 10 µM, 9 isoforms
CYP2B6 [1] = target: T1, CYP2B6 (Homo sapiens, UniProt P20813); test: Single concentration; assay type: in vitro ADME; conditions: human liver microsomes
T1 sequence (P20813 1-491): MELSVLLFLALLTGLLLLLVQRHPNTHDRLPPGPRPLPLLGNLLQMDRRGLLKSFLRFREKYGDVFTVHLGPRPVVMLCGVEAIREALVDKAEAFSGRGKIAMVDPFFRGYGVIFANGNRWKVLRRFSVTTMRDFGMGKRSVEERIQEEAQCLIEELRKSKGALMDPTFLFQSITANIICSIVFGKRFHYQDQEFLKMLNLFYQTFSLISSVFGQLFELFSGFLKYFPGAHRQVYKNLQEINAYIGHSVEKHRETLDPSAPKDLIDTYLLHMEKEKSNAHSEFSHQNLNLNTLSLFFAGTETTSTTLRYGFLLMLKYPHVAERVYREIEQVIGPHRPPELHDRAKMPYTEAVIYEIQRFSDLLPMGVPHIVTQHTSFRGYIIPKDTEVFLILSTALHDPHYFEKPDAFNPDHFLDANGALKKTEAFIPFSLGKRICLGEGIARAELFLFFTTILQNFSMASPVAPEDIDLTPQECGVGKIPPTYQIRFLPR

CYP3A4 [2] = target: T2, CYP3A4 (Homo sapiens, UniProt P08684)
T2 sequence (P08684 whole entry, canonical isoform): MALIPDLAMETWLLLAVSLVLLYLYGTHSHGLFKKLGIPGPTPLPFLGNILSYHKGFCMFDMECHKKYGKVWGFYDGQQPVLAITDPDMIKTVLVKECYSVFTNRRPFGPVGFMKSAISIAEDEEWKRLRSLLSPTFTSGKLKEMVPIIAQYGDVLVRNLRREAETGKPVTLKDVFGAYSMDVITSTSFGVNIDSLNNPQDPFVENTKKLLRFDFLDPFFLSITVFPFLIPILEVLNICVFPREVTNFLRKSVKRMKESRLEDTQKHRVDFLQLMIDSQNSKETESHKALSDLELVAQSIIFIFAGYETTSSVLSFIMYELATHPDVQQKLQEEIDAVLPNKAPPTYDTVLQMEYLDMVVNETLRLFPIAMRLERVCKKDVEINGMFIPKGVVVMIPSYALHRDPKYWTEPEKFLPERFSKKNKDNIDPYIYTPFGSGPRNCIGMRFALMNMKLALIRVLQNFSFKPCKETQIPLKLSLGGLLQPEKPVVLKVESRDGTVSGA

[3] = tested on: one or more cytochrome P450 enzymes (CYP1A2, 2A6, 2B6, 2C8, 2C9, 2C19, 2D6, 2E1, 3A4); isoform not specified per value; test: in vitro; conditions: human, pH 7.4
CYP2D6 = CYP2D6 (Homo sapiens, UniProt P10635); test: Single concentration; assay type: in vitro ADME; conditions: human liver microsomes
Chain of CYP2D6 (P10635 whole entry): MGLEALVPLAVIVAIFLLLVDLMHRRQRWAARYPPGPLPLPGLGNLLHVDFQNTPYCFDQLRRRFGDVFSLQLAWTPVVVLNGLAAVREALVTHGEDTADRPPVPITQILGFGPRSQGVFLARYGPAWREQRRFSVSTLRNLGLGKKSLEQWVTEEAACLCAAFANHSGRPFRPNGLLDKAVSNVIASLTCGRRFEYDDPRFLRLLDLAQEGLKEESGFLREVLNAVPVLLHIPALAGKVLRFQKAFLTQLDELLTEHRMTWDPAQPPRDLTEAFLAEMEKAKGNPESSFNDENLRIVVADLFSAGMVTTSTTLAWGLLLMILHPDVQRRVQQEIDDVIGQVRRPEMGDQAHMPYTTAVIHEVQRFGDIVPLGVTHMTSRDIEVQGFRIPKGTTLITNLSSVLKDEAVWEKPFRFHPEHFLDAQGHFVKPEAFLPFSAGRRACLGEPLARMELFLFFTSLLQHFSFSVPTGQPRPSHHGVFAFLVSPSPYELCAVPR

CYP2C = test: Single concentration; assay type: in vitro ADME; conditions: human liver microsomes
CYP3A4 [4] = target: T2, CYP3A4; conditions: recombinant enzymes; ref Kent et al., (2002); cited from earlier work
CYP2B6 [5] = target: T1, CYP2B6; conditions: recombinant enzymes; ref Kent et al., (2002); cited from earlier work
CYP2C9 = CYP2C9 (Homo sapiens, UniProt P11712); conditions: recombinant enzymes; ref Kent et al., (2002); cited from earlier work
Chain of CYP2C9 (P11712 whole entry): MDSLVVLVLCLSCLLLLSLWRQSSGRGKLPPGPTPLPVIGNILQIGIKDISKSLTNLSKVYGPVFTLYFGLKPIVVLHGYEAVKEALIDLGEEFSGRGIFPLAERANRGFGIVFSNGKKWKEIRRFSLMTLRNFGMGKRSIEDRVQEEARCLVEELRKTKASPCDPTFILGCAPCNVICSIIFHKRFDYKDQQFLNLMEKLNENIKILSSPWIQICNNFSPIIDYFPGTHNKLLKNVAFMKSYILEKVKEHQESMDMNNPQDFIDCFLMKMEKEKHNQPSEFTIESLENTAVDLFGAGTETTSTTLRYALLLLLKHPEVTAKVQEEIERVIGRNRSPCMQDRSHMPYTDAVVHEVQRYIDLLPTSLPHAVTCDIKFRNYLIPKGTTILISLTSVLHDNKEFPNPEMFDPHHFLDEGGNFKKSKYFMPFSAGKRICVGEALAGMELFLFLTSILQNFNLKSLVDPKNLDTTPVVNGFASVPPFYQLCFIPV

Row | Molecule | inhibition of CYP2B6 at 10 µM, in words (CYP2B6 [1]) | mode of CYP3A4 inhibition, in words (CYP3A4 [2]) | inhibition at 10 min, 10 µM [3] | inhibition of any cytochrome P450 enzyme, in words (cytochrome P450 enzymes) | further results
1 | O=C(/C=C/c1ccc(O[C@@H]2O[C@H](CO)[C@@H](O)[C@H](O)[C@H]2O)cc1)c1ccc(O)cc1O [Isoliquiritin, isoliquiritin] |  |  |  | did not inhibit | 
2 | isoliquiritin apioside |  |  |  | did not inhibit | 
3 | liquiritin apioside |  |  |  | did not inhibit | 
4 | CC1(C)C=Cc2c(ccc3c2OC[C@@H](c2ccc(O)cc2O)C3)O1 [Glabridin, glabridin] | not inhibition | competitively inhibited | > 50% |  | inhibition of CYP3A4, in words (CYP3A4 [4]): irreversibly inhibited; inhibition of CYP2B6, in words (CYP2B6 [5]): irreversibly inhibited; inhibition of CYP2C9, in words (CYP2C9): reversibly inhibited

The next lines start with results.

Row | inhibition of CYP2B6 at 10 µM, in words (CYP2B6 [1]) | mode of CYP3A4 inhibition, in words (CYP3A4 [2]) | inhibition at 10 min, 10 µM [3] | Molecule | inhibition of any cytochrome P450 enzyme, in words (cytochrome P450 enzymes) | further results
5 | inhibited | competitively inhibited | > 50% | COc1c(CC=C(C)C)c(O)cc2c1C[C@H](c1ccc(O)c(CC=C(C)C)c1O)CO2 [Licoricidin, licoricidin] |  | 
6 |  | competitively inhibited |  | O=C(/C=C/c1ccc(O)cc1)c1ccc(O)cc1O [Isoliquiritigenin, isoliquiritigenin] |  | 
7 |  |  | > 50% | CC1(C)[C@@H](O)CC[C@]2(C)[C@H]3C(=O)C=C4[C@@H]5C[C@@](C)(C(=O)O)CC[C@]5(C)CC[C@@]4(C)[C@]3(C)CC[C@@H]12 [18β-glycyrrhetinic acid] |  | 
8 | inhibited |  | > 50% | COc1c(CC=C(C)C)c(O)cc2oc(=O)c(-c3ccc(O)cc3O)cc12 [Glycycoumarin, glycycoumarin] |  | inhibition of CYP2D6 at 10 µM, in words (CYP2D6): did not observe significant inhibition; inhibition of CYP2C at 10 µM, in words (CYP2C): inhibited
